Measured values published in the supplement of paper PMC10307832.

Assays:
Experiment in all cases: relative viability (nuclei count vs DMSO), 5 days (fraction); higher = more cells survive
IMD-0354 + Navitoclax = compound: O=C(Nc1cc(C(F)(F)F)cc(C(F)(F)F)c1)c1cc(Cl)ccc1O [IMD-0354] + CC1(C)CCC(c2ccc(Cl)cc2)=C(CN2CCN(c3ccc(C(=O)NS(=O)(=O)c4ccc(N[C@H](CCN5CCOCC5)CSc5ccccc5)c(S(=O)(=O)C(F)(F)F)c4)cc3)CC2)C1 [Navitoclax] (partner 0.5 µM)
Method in brief: (§1)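 Values are medians from duplicate plates. Each reflects relative viability, defined as the nuclei count of treated wells over that of vehicle wells. Lung cancer cell lines in 1536-well plates were pin-tool dosed one day after seeding with one drug alone or with a fixed anchor-drug dose plus five library-drug doses (not always all listed) in √10 steps, then fixed, stained and imaged at 4× after 5 days.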

IMD-0354 + Palbociclib = compound: O=C(Nc1cc(C(F)(F)F)cc(C(F)(F)F)c1)c1cc(Cl)ccc1O [IMD-0354] + CC(=O)c1c(C)c2cnc(Nc3ccc(N4CCNCC4)cn3)nc2n(C2CCCC2)c1=O [Palbociclib] (partner 0.5 µM)
Method in brief: as §1

CX-5461 + Tozasertib = compound: Cc1cnc(CNC(=O)c2c(=O)c3ccc(N4CCCN(C)CC4)nc3n3c2sc2ccccc23)cn1 [CX-5461] + Cc1cc(Nc2cc(N3CCN(C)CC3)nc(Sc3ccc(NC(=O)C4CC4)cc3)n2)n[nH]1 [Tozasertib] (partner 0.1 µM)
Method in brief: as §1

IMD-0354 + Linsitinib = compound: O=C(Nc1cc(C(F)(F)F)cc(C(F)(F)F)c1)c1cc(Cl)ccc1O [IMD-0354] + C[C@]1(O)C[C@@H](c2nc(-c3ccc4ccc(-c5ccccc5)nc4c3)c3c(N)nccn32)C1 [Linsitinib] (partner 1 µM)
Method in brief: as §1

Cell Line | relative viability (IMD-0354 + Navitoclax; first compound 0.04 µM) | relative viability (IMD-0354 + Navitoclax; first compound 0.1265 µM) | relative viability (IMD-0354 + Navitoclax; first compound 0.4 µM) | relative viability (IMD-0354 + Navitoclax; first compound 1.265 µM) | relative viability (IMD-0354 + Navitoclax; first compound 4 µM) | relative viability (IMD-0354 + Palbociclib; first compound 0.04 µM) | relative viability (IMD-0354 + Palbociclib; first compound 0.1265 µM) | relative viability (IMD-0354 + Palbociclib; first compound 0.4 µM) | relative viability (IMD-0354 + Palbociclib; first compound 1.265 µM) | relative viability (IMD-0354 + Palbociclib; first compound 4 µM) | relative viability (CX-5461 + Tozasertib; first compound 0.01 µM) | relative viability (CX-5461 + Tozasertib; first compound 0.03162 µM) | relative viability (CX-5461 + Tozasertib; first compound 0.1 µM) | relative viability (CX-5461 + Tozasertib; first compound 0.3162 µM) | relative viability (CX-5461 + Tozasertib; first compound 1 µM) | relative viability (IMD-0354 + Linsitinib; first compound 0.04 µM) | relative viability (IMD-0354 + Linsitinib; first compound 0.1265 µM) | relative viability (IMD-0354 + Linsitinib; first compound 0.4 µM) | relative viability (IMD-0354 + Linsitinib; first compound 1.265 µM) | relative viability (IMD-0354 + Linsitinib; first compound 4 µM)
NCI-H1975 | 1.28 | 1.19 | 0.528 | 0.44 | 0.184 | 0.752 | 0.569 | 0.306 | 0.165 | 0.178 | 0.744 | 0.815 | 0.577 | 0.744 | 0.211 | 1.15 | 0.938 | 0.517 | 0.178 | 0.207
NCI-H1623 |  |  |  |  |  |  |  |  |  |  | 0.465 | 0.406 | 0.44 | 0.463 | 0.372 |  |  |  |  | 
NCI-H2170 | 0.608 | 0.585 | 0.562 | 0.644 | 0.274 | 0.425 | 0.394 | 0.342 | 0.385 | 0.229 | 0.781 | 0.768 | 0.727 | 0.581 | 0.637 |  |  |  |  | 
NCI-H1703 | 1.37 | 1.12 | 0.843 | 0.131 | 0.115 |  |  |  |  |  |  |  |  |  |  | 1.38 | 0.583 | 0.888 | 0.125 | 0.141
Calu-6 | 0.94 | 0.903 | 0.355 | 0.122 | 0.104 |  |  |  |  |  |  |  |  |  |  | 0.92 | 0.859 | 0.862 | 0.0995 | 0.0777
EBC-1 | 0.41 | 0.374 | 0.334 | 0.144 | 0.185 |  |  |  |  |  |  |  |  |  |  | 0.845 | 0.703 | 0.741 | 0.113 | 0.164
IA-LM | 0.778 | 0.662 | 0.381 | 0.122 | 0.0656 |  |  |  |  |  |  |  |  |  |  | 0.653 | 0.486 | 0.745 | 0.0945 | 0.16
NCI-H650 |  |  |  |  |  | 0.301 | 0.283 | 0.322 | 0.232 | 0.189 | 0.735 | 0.815 | 0.715 | 0.324 | 0.54 | 1.01 | 0.911 | 0.505 | 0.249 | 0.223
NCI-H1792 | 0.761 | 0.564 | 1.66 | 0.346 | 0.482 | 0.69 | 0.61 | 0.258 | 0.579 | 0.431 |  |  |  |  |  | 0.627 | 0.424 | 0.906 | 0.471 | 0.293
ChaGo-K-1 | 1.43 | 1.48 | 0.672 | 0.296 | 0.327 | 0.844 | 0.917 | 0.55 | 0.473 | 0.236 | 0.185 | 0.227 | 0.247 | 0.229 | 0.232 |  |  |  |  | 
NCI-H522 |  |  |  |  |  | 1.14 | 0.87 | 0.881 | 0.994 | 0.458 | 0.521 | 0.44 | 0.597 |  | 0.646 |  |  |  |  | 
